Where a name gives a salt, the structure may show the parent alone.
Legend:
Assay type in all cases: biochemical
Human Factor Xa = Human Factor Xa (Homo sapiens (Human), UniProt P00742); test: Factor Xa enzyme activity, chromogenic substrate S-2222; settings: human Factor Xa 0.18 U/mL, 300 μM S-2222, pH7.4; read-out: In vitro FXa inhibitory activity IC50
Procedure: (§1) Inhibitory activities of compounds of the present invention against factor XIa, Xa, XIIa, IXa, VIIa, plasma kallikrein or thrombin were evaluated using appropriate purified proteases and synthetic substrates. The rate of hydrolysis of the chromogenic substrate by the relevant protease was continuously measured at 405 nm. Inhibitory activity against each enzyme was calculated as % inhibition using the equation described below. % Inhibition=[[(rate without compound)−(rate with compound)]/(rate without compound)]×100%. Each half maximal inhibitory concentration (IC50) value was determined by plotting the concentration of compound of the invention against the % inhibition. (1-1) Factor XIa Enzyme Activity
(§2) Human Factor Xa (American Diagnostica Inc.) and human thrombin (Sigma) activities were measured at the enzyme concentrations of 0.18 U/mL and 0.12 U/mL, respectively in the same buffer containing 150 mM NaCl, 2 mg/mL PEG6000, 50 mM Tris-HCl (pH7.4), except that the reactions were started with 300 μM S-2222 ([…], Chromogenix) and 300 μM S-2366, respectively.

human thrombin = human thrombin (Homo sapiens (Human), UniProt P00734); test: Thrombin enzyme activity, chromogenic substrate S-2366; settings: human thrombin 0.12 U/mL, 300 μM S-2366, pH7.4; read-out: In vitro Thrombin inhibitory activity IC50
Procedure: as §1, §2

Human Factor XIa = Human Factor XIa (Homo sapiens (Human), UniProt P03951); test: Factor XIa enzyme activity, chromogenic substrate S-2366; settings: purified human Factor XIa 0.1 U/mL, 300 μM S-2366, pH7.4; read-out: In vitro FXIa inhibitory activity IC50
Chain of Human Factor XIa (P03951 388-625): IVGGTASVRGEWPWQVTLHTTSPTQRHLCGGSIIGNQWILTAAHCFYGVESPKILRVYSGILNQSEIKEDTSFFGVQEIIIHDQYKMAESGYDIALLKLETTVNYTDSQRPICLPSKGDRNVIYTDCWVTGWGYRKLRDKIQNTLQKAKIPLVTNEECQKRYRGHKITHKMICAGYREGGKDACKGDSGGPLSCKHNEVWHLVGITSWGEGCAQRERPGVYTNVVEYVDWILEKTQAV
Chain of Human Factor XIa (P03951 19-387 partner): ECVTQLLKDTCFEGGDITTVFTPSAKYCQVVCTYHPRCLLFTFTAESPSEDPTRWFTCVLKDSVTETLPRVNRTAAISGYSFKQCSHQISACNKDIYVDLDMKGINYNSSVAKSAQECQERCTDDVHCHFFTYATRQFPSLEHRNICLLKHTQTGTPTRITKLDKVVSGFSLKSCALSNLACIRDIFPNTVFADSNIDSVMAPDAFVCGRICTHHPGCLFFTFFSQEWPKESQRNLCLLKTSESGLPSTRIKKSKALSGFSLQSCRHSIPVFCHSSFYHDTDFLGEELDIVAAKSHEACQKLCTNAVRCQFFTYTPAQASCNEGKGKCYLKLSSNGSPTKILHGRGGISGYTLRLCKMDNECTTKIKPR
Procedure: as §1
Human Factor XIa (Haematologic Technologies Inc.) activity was measured at an enzyme concentration of 0.1 U/mL in 150 mM NaCl, 5 mM KCl, 1 mg/mL PEG6000, 50 mM HEPES-NaOH (pH7.4) with 300 μM S-2366 (pyroGlu-Pro-Arg-pNA, Chromogenix).

Chain of Human Factor Xa (P00742 235-488): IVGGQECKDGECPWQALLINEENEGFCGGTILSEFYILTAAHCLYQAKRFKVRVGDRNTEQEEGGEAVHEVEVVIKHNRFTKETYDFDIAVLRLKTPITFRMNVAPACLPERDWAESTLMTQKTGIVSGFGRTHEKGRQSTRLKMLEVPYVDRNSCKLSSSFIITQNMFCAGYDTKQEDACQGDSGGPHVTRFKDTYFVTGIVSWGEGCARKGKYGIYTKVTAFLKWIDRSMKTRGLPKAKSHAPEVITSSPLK
Chain of Human Factor Xa (P00742 41-179 partner): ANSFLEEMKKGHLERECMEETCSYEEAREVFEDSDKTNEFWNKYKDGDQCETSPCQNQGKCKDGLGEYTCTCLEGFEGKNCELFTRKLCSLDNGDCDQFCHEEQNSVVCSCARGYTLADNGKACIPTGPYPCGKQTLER

Row | SMILES | IC50 (Human Factor Xa) | IC50 (human thrombin) | IC50 (Human Factor XIa)
1 | COC(=O)Nc1ccc(-c2[nH]c([C@@H]3C[C@H](C4CCN(S(C)(=O)=O)CC4)CN3C(=O)c3ccc(NC(=N)N)cc3)nc2Cl)cc1 [Example 79, methyl [4-(2-{(2S,4R)-1-(4-carbamimidamidobenzoyl)-4-[1-(methylsulfonyl)-4-piperidinyl]-2-pyrrolidinyl}-4-chloro-1H-imidazol-5-yl)phenyl]carbamate bis(trifluoroacetate)] | > 100 µM | 40 µM | 0.0065 µM
2 | COC(=O)Nc1ccc(-c2[nH]c([C@@H]3C[C@H](C4CCN(S(C)(=O)=O)CC4)CN3C(=O)C3CCN(C(=N)N)CC3)nc2Cl)cc1 [Example 71, methyl [4-(2-{(2S,4R)-1-[(1-carbamimidoyl-4-piperidinyl)carbonyl]-4-[1-(methylsulfonyl)-4-piperidinyl]-2-pyrrolidinyl}-4-chloro-1H-imidazol-5-yl)phenyl]carbamate dihydrochloride] | > 100 µM | 94 µM | 0.0022 µM
3 | COC(=O)Nc1ccc(-c2cnc([C@@H]3C[C@H](C4CCN(S(C)(=O)=O)CC4)CN3C(=O)c3ccc(C(=N)N)cc3)[nH]2)cc1 [Example 73, methyl [4-(2-{(2S,4R)-1-(4-carbamimidoylbenzoyl)-4-[1-(methylsulfonyl)-4-piperidinyl]-2-pyrrolidinyl}-1H-imidazol-5-yl)phenyl]carbamate dihydrochloride] | > 100 µM | 37 µM | 0.0044 µM
4 | COC(=O)Nc1ccc(-c2[nH]c([C@@H]3C[C@H](C4CCN(S(C)(=O)=O)CC4)CN3C(=O)[C@H]3CC[C@H](CN)CC3)nc2Cl)cc1 [Example 96, methyl [4-(2-{(2S,4R)-1-{[4-(aminomethyl)cyclohexyl]carbonyl}-4-[1-(methylsulfonyl)-4-piperidinyl]-2-pyrrolidinyl}-4-chloro-1H-imidazol-5-yl)phenyl]carbamate bis(trifluoroacetate)] | > 100 µM | > 100 µM | 0.0042 µM
